Data reported in patent US20260083865A1, “PROSTATE SPECIFIC MEMBRANE ANTIGEN (PSMA) LIGANDS AND USE THEREOF” (priority 2022, published 2026).
Like-named read-outs stand apart in the source and are kept apart here. Numbered stars: 1 amine (or outer) side, 2 acyl side, 3 side chain; on linkers, the order of the positions; unused ones are H or OH. Bridge positions count the residues as written; N and C are the ends. Square brackets hold non-standard residues; d marks the D form. Side chains are listed from the residue outwards. Peptide text beside a SMILES is read from it. * marks the point of attachment. DOTA = O=C(O)CN1CCN(CC(=O)O)CCN(CC(=O)*)CCN(CC(=O)O)CC1; Trp(5-Cl) = N[C@@H](Cc1c[nH]c2ccc(Cl)cc12)C(=O)O; Phe(4-Cl) = N[C@@H](Cc1ccc(Cl)cc1)C(=O)O; Ethylenediamine = C(CN[*:2])N[*:1]; X1 = O=C(CC1CCN([*:1])CC1)[*:2]; Cit = NC(=O)NCCC[C@H](N)C(=O)O; Tle = CC(C)(C)[C@H](N)C(=O)O; 4Amb = NCc1ccc(C(=O)O)cc1; Nle = CCCC[C@H](N)C(=O)O; AEEA = NCCOCCOCC(=O)O; Aib = CC(C)(N)C(=O)O

How the values were obtained:
[1] = molecular target: T1, PSMA-expressing C4-2 cells (Homo sapiens, UniProt Q04609); test: FACS binding assay (competition with 50 nM PSM-0183); conditions: read-out: pIC50 [C4-2] CAT (converted)
T1 construct: PSMA-expressing C4-2 cells (ATCC, Cat. No. CRL-3314) were cultured in RPMI-1640; host or cells: C4-2 cells
In short: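 C4-2 cells were incubated 1 h at 4 °C with 50 nM AF488-labelled peptide PSM-0183 plus increasing test compound concentrations, then washed twice in ice-cold buffer. Median fluorescence in the AF488 channel was read by flow cytometry. IC50/pIC50 was derived by 4PL fitting of MFI versus concentration.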

[2] = molecular target: T2, Fc-fusion protein of human PSMA (hPSMA-Fc) (Homo sapiens, UniProt Q04609); test: Surface plasmon resonance assay (Biacore T200, single cycle kinetic); assay type: binding; conditions: hPSMA-Fc, 25° C., read-out: pKD CAT (converted)
T2 construct: purchased Acro Biosystems PSA-H5264
In short: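 hPSMA-Fc was captured (~1000 RU) on an Fc-binding-peptide CM5 chip, and compounds were run in single cycle kinetic mode at 25° C in HBST with 0.1% DMSO. Double-blank-corrected sensorgrams were fitted to a 1:1 Langmuir model to give KD, reported as pKD.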

[3] = pIC50 category of FACS binding, C4-2 cells
[4] = pKD category for PSMA SPR activity assay
[5] = FACS binding, PSMA-expressing C4-2 cells, pIC50 category

T2 sequence (Q04609 44-750 limits assumed): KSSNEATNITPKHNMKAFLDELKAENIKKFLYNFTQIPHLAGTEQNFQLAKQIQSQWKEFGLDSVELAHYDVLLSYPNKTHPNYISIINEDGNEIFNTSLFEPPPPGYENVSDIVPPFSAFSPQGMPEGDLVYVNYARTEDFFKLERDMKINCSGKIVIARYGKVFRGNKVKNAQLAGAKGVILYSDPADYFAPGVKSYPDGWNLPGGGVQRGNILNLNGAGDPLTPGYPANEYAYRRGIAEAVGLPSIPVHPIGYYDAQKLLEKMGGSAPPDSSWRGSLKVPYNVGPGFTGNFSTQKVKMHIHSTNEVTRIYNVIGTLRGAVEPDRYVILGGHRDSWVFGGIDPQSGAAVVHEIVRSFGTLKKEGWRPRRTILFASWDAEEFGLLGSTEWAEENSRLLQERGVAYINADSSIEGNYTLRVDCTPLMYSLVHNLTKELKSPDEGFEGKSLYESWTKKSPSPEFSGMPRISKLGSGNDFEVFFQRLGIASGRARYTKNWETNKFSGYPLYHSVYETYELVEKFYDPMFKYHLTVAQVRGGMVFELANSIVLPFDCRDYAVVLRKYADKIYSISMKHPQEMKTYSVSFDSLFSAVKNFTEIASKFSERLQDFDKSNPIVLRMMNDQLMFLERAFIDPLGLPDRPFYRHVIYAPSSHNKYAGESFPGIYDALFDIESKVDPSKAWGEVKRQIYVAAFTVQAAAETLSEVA
T1 sequence (Q04609 whole entry): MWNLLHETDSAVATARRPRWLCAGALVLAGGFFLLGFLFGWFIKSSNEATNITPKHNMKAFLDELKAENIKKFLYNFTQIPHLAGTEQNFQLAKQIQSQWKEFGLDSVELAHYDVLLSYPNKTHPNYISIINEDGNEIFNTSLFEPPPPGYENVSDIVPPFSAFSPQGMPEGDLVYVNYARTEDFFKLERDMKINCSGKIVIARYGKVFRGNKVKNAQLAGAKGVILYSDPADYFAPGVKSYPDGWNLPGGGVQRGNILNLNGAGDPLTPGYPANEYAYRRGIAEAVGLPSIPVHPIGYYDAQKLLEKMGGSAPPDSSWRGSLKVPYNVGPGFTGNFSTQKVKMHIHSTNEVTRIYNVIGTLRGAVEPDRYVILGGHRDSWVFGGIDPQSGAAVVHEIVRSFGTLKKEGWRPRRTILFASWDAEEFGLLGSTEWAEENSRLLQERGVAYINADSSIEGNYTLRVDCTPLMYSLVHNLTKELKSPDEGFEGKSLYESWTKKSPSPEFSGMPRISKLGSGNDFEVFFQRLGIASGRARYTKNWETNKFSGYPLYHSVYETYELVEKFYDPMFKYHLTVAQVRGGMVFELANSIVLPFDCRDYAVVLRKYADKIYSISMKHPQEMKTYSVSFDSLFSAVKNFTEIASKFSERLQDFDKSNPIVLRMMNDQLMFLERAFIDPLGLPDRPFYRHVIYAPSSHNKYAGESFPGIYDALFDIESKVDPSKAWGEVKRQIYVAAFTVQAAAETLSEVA

IC50 [1, 3] [nM]	Kd [2, 4] [nM]	Compound	further results
< 200	< 12.6	CC(=O)NC(C)(C)C(=O)N[C@@H](Cc1ccccc1)C(=O)N[C@H]1CSSC[C@@H](C(=O)N[C@H](C(=O)N[C@H](C(=O)N[C@@H](CC(=O)O)C(N)=O)[C@@H](C)O)C(C)(C)C)NC(=O)[C@H](CC(N)=O)NC(=O)C(C)(C)NC(=O)[C@H](CCCNC(=N)N)NC(=O)[C@H](CCCCN)NC1=O [PSM-0442, Ac-Aib-Phe-[Cys-Lys-Arg-Aib-Asn-Cys]-Tle-Thr-Asp-NH2] (Ac-[Aib]FCKR[Aib]NC[Tle]TD-NH2; disulfide 3-8)	–
< 200	< 12.6	CC(=O)N[C@H](C(=O)NC(C)(C)C(=O)N[C@@H](Cc1ccc(Cl)cc1)C(=O)N[C@H]1CSSC[C@@H](C(=O)N[C@H](C(=O)N[C@H](C(N)=O)[C@@H](C)O)C(C)(C)C)NC(=O)[C@H](CC(N)=O)NC(=O)[C@H](CCCCNC(=O)COCCOCCNC(=O)CN2CCN(CC(=O)O)CCN(CC(=O)O)CCN(CC(=O)O)CC2)NC(=O)[C@H](CCCNC(=N)N)NC(=O)[C@H](CCCCN)NC1=O)[C@@H](C)O [PSM-0370, Ac-Thr-Aib-Pcf-[Cys-Lys-Arg-Lys(DOTA-020c)-Asn-Cys]-Tle-Thr-NH2] (Ac-T[Aib][Phe(4-Cl)]CKRK([AEEA-DOTA])NC[Tle]T-NH2; disulfide 4-9)	–

Further lines, the compound ahead of its results:

Compound	IC50 [1, 3] [nM]	Kd [2, 4] [nM]	further results
CC(=O)N[C@H](C(=O)NC(C)(C)C(=O)N[C@@H](Cc1ccccc1)C(=O)N[C@H]1CSSC[C@@H](C(=O)N[C@H](C(=O)N[C@H](C(=O)N[C@@H](CC(=O)O)C(N)=O)[C@@H](C)O)C(C)(C)C)NC(=O)[C@H](CC(N)=O)NC(=O)C(C)(C)NC(=O)[C@H](CCCNC(N)=O)NC(=O)[C@H](CCCCN)NC1=O)[C@@H](C)O [PSM-0280, Ac-Thr-Aib-Phe-[Cys-Lys-Cit-Aib-Asn-Cys]-Tle-Thr-Asp-NH2] (Ac-T[Aib]FCK[Cit][Aib]NC[Tle]TD-NH2; disulfide 4-9)	–	–	IC50 [1, 5]: < 200 nM; Kd ([2]; PSMA SPR assay, pKD category): < 12.6 nM
CC(C)(NC(=O)c1ccc(CNC(=O)CN2CCN(CC(=O)O)CCN(CC(=O)O)CCN(CC(=O)O)CC2)cc1)C(=O)N[C@@H](Cc1ccccc1)C(=O)N[C@H]1CSSC[C@@H](C(=O)N[C@H](C(=O)NCCN)C(C)(C)C)NC(=O)[C@H](CC(N)=O)NC(=O)C(C)(C)NC(=O)[C@H](CCCNC(=N)N)NC(=O)[C@H](CCCCN)NC1=O [PSM-0221, DOTA-Pamb-Aib-Phe-[Cys-Lys-Arg-Aib-Asn-Cys]-Tle-en] ({DOTA-4Amb}-[Aib]FCKR[Aib]NC[Tle]-Ethylenediamine; disulfide 3-8)	–	–	IC50 ([1]; FACS binding, C4-2 cells, competition with 50 nM PSM-0183, category): < 200 nM; Kd ([2]; SPR, single cycle kinetic, category): < 12.6 nM
C[C@@H](O)[C@H](NC(=O)[C@@H](NC(=O)[C@@H]1CSSC[C@H](NC(=O)[C@H](Cc2c[nH]c3ccc(Cl)cc23)NC(=O)C(C)(C)NC(=O)[C@@H](NC(=O)CC2CCN(C(=O)CN3CCN(CC(=O)O)CCN(CC(=O)O)CCN(CC(=O)O)CC3)CC2)[C@@H](C)O)C(=O)N[C@@H](CCCCN)C(=O)N[C@@H](CCCNC(N)=O)C(=O)NC(C)(C)C(=O)N[C@@H](CC(N)=O)C(=O)N1)C(C)(C)C)C(N)=O [PSM-0406, DOTA-Cmp-Thr-Aib-5Clw-[Cys-Lys-Cit-Aib-Asn-Cys]-Tle-Thr-NH2] ({DOTA}-[X1]T[Aib][Trp(5-Cl)]CK[Cit][Aib]NC[Tle]T-NH2; disulfide 5-10)	1260 to 3160	> 501	–
CCCC[C@H](NC(=O)[C@@H]1CSSC[C@H](NC(=O)[C@H](Cc2ccccc2)NC(=O)[C@H](C)NC(=O)[C@@H](NC(C)=O)[C@@H](C)O)C(=O)N2CCC[C@H]2C(=O)N[C@@H](CCCNC(=N)N)C(=O)N[C@@H](C)C(=O)N[C@@H](CC(N)=O)C(=O)N1)C(=O)N[C@H](C(=O)N[C@@H](CC(=O)O)C(N)=O)[C@@H](C)O [PSM-0544, Ac-Thr-Als-Phe-[Cys-Pro-Arg-Ala-Asn-Cys]-Nle-Thr-Asp-NH2] (Ac-TAFCPRANC[Nle]TD-NH2; disulfide 4-9)	> 3160	> 501	–
CCCC[C@@H]1NC(=O)[C@H](CCCCN)NC(=O)[C@@H](NC(=O)[C@H](Cc2ccc(Cl)cc2)NC(=O)C(C)(C)NC(=O)[C@@H](NC(C)=O)[C@@H](C)O)CSSC[C@@H](C(=O)N[C@H](C(=O)N[C@H](C(N)=O)[C@@H](C)O)C(C)(C)C)NC(=O)[C@H](CC(N)=O)NC(=O)C(C)(C)NC1=O [PSM-0338, Ac-Thr-Aib-Pcf-[Cys-Lys-Nle-Aib-Asn-Cys]-Tle-Thr-NH2] (Ac-T[Aib][Phe(4-Cl)]CK[Nle][Aib]NC[Tle]T-NH2; disulfide 4-9)	–	–	IC50 [1, 5]: < 200 nM; Kd ([2]; PSMA SPR assay, pKD category): < 12.6 nM
